From ChEMBL document CHEMBL5576127, “New CDDO Arylboronate Ester Derivatives with High Selectivity and Low Toxicity” (J Med Chem, 2024)
Active and inactive are the calls of the source. The calls are words filed in the database; no cut-off is given here.

Legend:
[1] = Acute toxicity in ip dosed ICR mouse assessed as lethal dose; assay type: organism-based; details: in vivo
BGC-823 [2] = assay: Induction of apoptosis in human BGC-823 cells assessed as viable cells at 6 uM incubated for 48 hrs by Annexin V-FITC/PI staining based flow cytometric analysis ( Rvb = 90.09 %); assay type: functional; details: read-out: Activity
[3] = Cytotoxicity against human MCF-10A cells assessed as inhibition of cell proliferation incubated for 48 hrs by MTT assay; assay type: toxicity, cell-based
BGC-823 [4] = assay: Induction of apoptosis in human BGC-823 cells assessed as viable cells at 1.5 uM incubated for 48 hrs by Annexin V-FITC/PI staining based flow cytometric analysis ( Rvb = 90.09 %); assay type: functional; details: read-out: Activity
SGC-7901 = assay: Antiproliferative activity against human SGC-7901 cells assessed as inhibition of cell proliferation incubated for 48 hrs by MTT assay; assay type: functional, cell-based; details: SGC-7901, 48 h
[5] = Acute toxicity in ip dosed ICR mouse assessed as animal death at 1.82 logarithm of dose; assay type: organism-based; details: in vivo
BGC-823 [6] = assay: Antiproliferative activity against human BGC-823 cells assessed as reduction in cell viability at 0.52 to 7.68 uM preincubated with NAC for 2 hrs followed by compound addition and measured after 48 hrs by MTT assay; assay type: functional, cell-based; details: dose 0.52-7.68 µM
BGC-823 [7] = assay: Antiproliferative activity against human BGC-823 cells assessed as reduction in cell viability at 0.52 to 7.68 uM preincubated with H2O2 for 2 hrs followed by compound addition and measured after 48 hrs by MTT assay; assay type: functional, cell-based; details: dose 0.52-7.68 µM
[8] = Acute toxicity in ip dosed ICR mouse assessed as mortality rate by measuring ratio at 1.93 logarithm of dose relative to total number of mouse; assay type: organism-based; details: in vivo
NCI-N87 = assay: Antiproliferative activity against human NCI-N87 cells assessed as inhibition of cell proliferation incubated for 48 hrs by MTT assay; assay type: functional, cell-based; details: NCI-N87, 48 h
BGC-823 [9] = assay: Antitumor activity against human BGC-823 cells xenografted in BALB/c nude mouse assessed as increase in ROS level in tumor at 5 mg/kg, ip administered for 21 days by DHE staining based analysis; assay type: functional, organism-based; details: time 21.0 day
BGC-823 [10] = assay: Induction of apoptosis in human BGC-823 cells assessed as late apoptotic cells at 1.5 uM incubated for 48 hrs by Annexin V-FITC/PI staining based flow cytometric analysis ( Rvb = 5.61 %); assay type: functional
BGC-823 [11] = assay: Induction of apoptosis in human BGC-823 cells assessed as late apoptotic cells at 3 uM incubated for 48 hrs by Annexin V-FITC/PI staining based flow cytometric analysis ( Rvb = 5.61 %); assay type: functional
[12] = Toxicity in BALB/c nude mouse xenografted with human BGC-823 cells assessed as change in body weight at 5 mg/kg, ip administered for 21 days; assay type: organism-based; details: in vivo, 504 h, time 21 day
HepG2 = assay: Antiproliferative activity against human HepG2 cells assessed as inhibition of cell proliferation incubated for 48 hrs by MTT assay; assay type: functional, cell-based; details: HepG2, 48 h
[13] = GSH reactivity in human BGC-823 cells assessed as GSSG/GSH ratio at 2 uM incubated for 24 hrs by microplate reader analysis (reference value: 0.34); assay type: ADME, cell-based; details: bgc-823, 24 h
MGC-803 = assay: Antiproliferative activity against human MGC-803 cells assessed as inhibition of cell proliferation incubated for 48 hrs by MTT assay; assay type: functional, cell-based; details: MGC-803, 48 h
BGC-823 [14] = assay: Induction of apoptosis in human BGC-823 cells assessed as early apoptotic cells at 6 uM incubated for 48 hrs by Annexin V-FITC/PI staining based flow cytometric analysis ( Rvb = 1.68 %); assay type: functional
BGC-823 [15] = assay: Antitumor activity against human BGC-823 cells xenografted in BALB/c nude mouse assessed as nuclear condensation in tumor at 5 mg/kg, ip administered for 21 days by H and E staining based analysis; assay type: functional, organism-based; details: time 21.0 day
[16] = Acute toxicity in ip dosed ICR mouse assessed as effect on liver by H and E staining based analysis; assay type: organism-based; details: in vivo
[17] = Cytotoxicity against human L02 cells assessed as inhibition of cell proliferation incubated for 48 hrs by MTT assay; assay type: toxicity, cell-based
BGC-823 [18] = assay: Antiproliferative activity against human BGC-823 cells assessed as inhibition of cell proliferation preincubated with H2O2 for 2 hrs followed by compound addition and measured after 48 hrs by MTT assay; assay type: functional, cell-based
BGC-823 [19] = assay: Induction of apoptosis in human BGC-823 cells assessed as late apoptotic cells at 6 uM incubated for 48 hrs by Annexin V-FITC/PI staining based flow cytometric analysis ( Rvb = 5.61 %); assay type: functional
[20] = Drug release in human BGC-823 cells assessed as increase in 4-((4-hydroxybenzoyl)oxy)butyl (4aS,6aR,6bS,8aR,12aS,14aR,14bS)-11-cyano-2,2,6a,6b,9,9,12a-heptamethyl-10,14-dioxo-1,3,4,5,6,6a,6b,7,8,8a,9,10,12a,14,14a,14b-hexadecahydropicene-4a(2H)-carboxylate concentration incubated for 4 hrs in absence of H2O2 by LC-MS analysis; assay type: ADME, cell-based; details: bgc-823, 4 h
BGC-823 [21] = assay: Induction of apoptosis in human BGC-823 cells assessed as early apoptotic cells at 3 uM incubated for 48 hrs by Annexin V-FITC/PI staining based flow cytometric analysis ( Rvb = 1.68 %); assay type: functional
BGC-823 [22] = assay: Induction of apoptosis in human BGC-823 cells assessed as necrotic cells at 1.5 uM incubated for 48 hrs by Annexin V-FITC/PI staining based flow cytometric analysis ( Rvb = 1.79 %); assay type: functional
[23] = Acute toxicity in ip dosed ICR mouse assessed as effect on lung by H and E staining based analysis; assay type: organism-based; details: in vivo
BGC-823 [24] = assay: Induction of apoptosis in human BGC-823 cells assessed as necrotic cells at 6 uM incubated for 48 hrs by Annexin V-FITC/PI staining based flow cytometric analysis ( Rvb = 1.79 %); assay type: functional
Cell membrane [25] = assay: Induction of mitochondrial membrane potential loss in human BGC-823 cells assessed as decrease in number of cells with J-aggregates by measuring red fluorescence at 6 uM incubated for 24 hrs by JC-1 staining based flow cytometric analysis (reference value: 99.7 %); assay type: cell membranes; set-up: scale not given: the % may be the effect or the level left
BGC-823 [26] = assay: Antitumor activity against human BGC-823 cells xenografted in BALB/c nude mouse assessed as tumor growth inhibition at 5 mg/kg, ip administered for 21 days relative to control; assay type: functional; details: BGC-823, 504 h, time 21 day, read-out: TGI
BGC-823 [27] = assay: Induction of apoptosis in human BGC-823 cells assessed as early apoptotic cells at 1.5 uM incubated for 48 hrs by Annexin V-FITC/PI staining based flow cytometric analysis ( Rvb = 1.68 %); assay type: functional
BGC-823 [28] = assay: Antitumor activity against human BGC-823 cells xenografted in BALB/c nude mouse assessed as nuclear fragmentation in tumor at 5 mg/kg, ip administered for 21 days by H and E staining based analysis; assay type: functional, organism-based; details: time 21.0 day
MCF7 = assay: Antiproliferative activity against human MCF7 cells assessed as inhibition of cell proliferation incubated for 48 hrs by MTT assay; assay type: functional, cell-based; details: MCF7, 48 h
[29] = Acute toxicity in ip dosed ICR mouse assessed as effect on heart by H and E staining based analysis; assay type: organism-based; details: in vivo
BGC-823 [30] = assay: Induction of ROS generation in human BGC-823 cells assessed as cells with green fluorescence at 6 uM incubated for 24 hrs by DCFH-DA staining based analysis relative to control; assay type: functional
BGC-823 [31] = assay: Cell cycle arrest in human BGC-823 cells assessed as accumulation of cells at G2/M phase incubated for 24 hrs by PI staining based flow cytometric analysis; assay type: functional
[32] = Selectivity index, ratio of IC50 for cytotoxicity against human GES1 cells to IC50 for antiproliferative activity against human BGC-823 cells in presence of H2O2; assay type: toxicity, cell-based; details: GES1 cells and BGC-823 cells, read-out: Ratio IC50
[33] = Cytotoxicity against human GES1 cells assessed as inhibition of cell proliferation incubated for 48 hrs by MTT assay; assay type: toxicity, cell-based
[34] = Binding affinity to DTT in PBS assessed as UV peak appearance at 288 nm at 360 uM by UV-Vis spectra analysis
Cell membrane [35] = assay: Induction of mitochondrial membrane potential loss in human BGC-823 cells assessed as increase in number of cells with J-monomers by measuring green fluorescence at 6 uM incubated for 24 hrs by JC-1 staining based flow cytometric analysis (reference value: 0.33%); assay type: cell membranes
BGC-823 [36] = assay: Induction of apoptosis in human BGC-823 cells assessed as viable cells at 3 uM incubated for 48 hrs by Annexin V-FITC/PI staining based flow cytometric analysis ( Rvb = 90.09 %); assay type: functional; details: read-out: Activity
BGC-823 [37] = assay: Antiproliferative activity against human BGC-823 cells assessed as inhibition of cell proliferation incubated for 48 hrs by MTT assay; assay type: functional, cell-based; details: BGC-823, 48 h
[38] = Acute toxicity in ip dosed ICR mouse assessed as effect on spleen by H and E staining based analysis; assay type: organism-based; details: in vivo
BGC-823 [39] = assay: Induction of apoptosis in human BGC-823 cells assessed as necrotic cells at 3 uM incubated for 48 hrs by Annexin V-FITC/PI staining based flow cytometric analysis ( Rvb = 1.79 %); assay type: functional
[40] = Acute toxicity in ip dosed ICR mouse assessed as effect on kidney by H and E staining based analysis; assay type: organism-based; details: in vivo

Structure (SMILES): CC1(C)CC[C@]2(C(=O)OCCCCOC(=O)c3ccc(OCc4ccc(B5OC(C)(C)C(C)(C)O5)cc4)cc3)CC[C@]3(C)[C@H](C(=O)C=C4[C@@]5(C)C=C(C#N)C(=O)C(C)(C)[C@@H]5CC[C@]43C)[C@@H]2C1
- LD50 [1]: 91.2 mg/kg
- viability at 6 µM (BGC-823 [2]): 75.8%
- IC50 at 48 h [3]: 5 µM
- viability at 1.5 µM (BGC-823 [4]): 87.1%
- IC50 (SGC-7901): 3.2 µM
- Activity [5]: Toxic
- Activity (BGC-823 [6]): inactive
- Activity (BGC-823 [7]): Active
- Ratio [8]: 0.17
- IC50 (NCI-N87): 2.5 µM
- Activity (BGC-823 [9]): Active
- Activity (BGC-823 [10]): 7.62%
- Activity (BGC-823 [11]): 9.84%
- Activity [12]: Non-Toxic
- IC50 (HepG2): 6.5 µM
- Ratio [13]: 0.48
- IC50 (MGC-803): 3.6 µM
- Activity (BGC-823 [14]): 3.71%
- Activity (BGC-823 [15]): Active
- Activity [16]: Non-Toxic
- IC50 at 48 h [17]: 6.5 µM
- IC50 (BGC-823 [18]): 1.2 µM
- Activity (BGC-823 [19]): 14.9%
- Drug metabolism [20]: Metabolite_Notdetected
- Activity (BGC-823 [21]): 2.13%
- Activity (BGC-823 [22]): 3.23%
- Activity [23]: Non-Toxic
- Activity (BGC-823 [24]): 5.58%
- Activity (Cell membrane [25]): 62.7%
- inhibition in vivo at 5 mg/kg (BGC-823 [26]): 86.2%
- Activity (BGC-823 [27]): 2.08%
- Activity (BGC-823 [28]): Active
- IC50 (MCF7): 2.9 µM
- Activity [29]: Non-Toxic
- Activity (BGC-823 [30]): 35.7%
- Activity (BGC-823 [31]): Dose-Dependent Effect
- selectivity ratio [32]: 4
- IC50 at 48 h [33]: 4.5 µM
- Activity [34]: inactive
- Activity (Cell membrane [35]): 37.1%
- viability at 3 µM (BGC-823 [36]): 82.8%
- IC50 (BGC-823 [37]): 2.3 µM
- Activity [38]: Non-Toxic
- Activity (BGC-823 [39]): 5.24%
- Activity [40]: Non-Toxic
